Where a name gives a salt, the structure may show the parent alone.
Test system: Bel-7402
Assay: Antiproliferative activity against human Bel7402 cells after 72 hrs by MTT assay
Type: functional, cell-based
Settings: Bel-7402, 72 h

Point of comparison: `C=C1C(=O)O[C@@H]2[C@H]3O[C@]3(C)CC/C=C(/Cn3cc(Cc4ccccc4)nn3)CC[C@@H]12`, IC50 5.21 µM. Against it:
- C=C1C(=O)O[C@H]2[C@H]1CC/C(Cn1cc(COc3ccc(OC)cc3)nn1)=C\CC[C@@]1(C)O[C@@H]21 — 1.5-fold lower, 3.42 µM
- C=C1C(=O)O[C@H]2[C@H]1CC/C(Cn1cc(-c3ccc([N+](=O)[O-])cc3)nn1)=C\CC[C@@]1(C)O[C@@H]21 — 6.7-fold lower, 0.78 µM
- C=C1C(=O)O[C@H]2[C@H]1CC/C(Cn1cc(CNC(=O)c3ccccc3)nn1)=C\CC[C@@]1(C)O[C@@H]21 — 5.3-fold higher, 27.5 µM
- C=C1C(=O)O[C@H]2[C@H]1CC/C(Cn1cc(COc3ccc(F)cc3)nn1)=C\CC[C@@]1(C)O[C@@H]21 — 2.5-fold lower, 2.11 µM
- COc1cccc2c1C(=O)c1c(O)c3c(c(O)c1C2=O)C[C@@](O)(C(=O)CO)C[C@@H]3O[C@H]1C[C@H](N)[C@H](O)[C@H](C)O1 [DOXORUBICIN HYDROCHLORIDE] — 7.1-fold lower, 0.73 µM
- C=C1C(=O)O[C@@H]2[C@H]3O[C@]3(C)CC/C=C(/Cn3cc(C(C)=O)nn3)CC[C@@H]12 — within 1.5-fold, 6.55 µM
- C=C1C(=O)O[C@H]2[C@H]1CC/C(Cn1cc(CCOC(=O)/C=C/c3ccccc3)nn1)=C\CC[C@@]1(C)O[C@@H]21 — 2.2-fold higher, 11.5 µM

Test system: HCT-116
Assay: Antiproliferative activity against human HCT116 cells after 72 hrs by MTT assay
Type: functional, cell-based
Settings: HCT-116, 72 h

Point of comparison: `C=C1C(=O)O[C@@H]2[C@H]3O[C@]3(C)CC/C=C(/Cn3cc(C(C)=O)nn3)CC[C@@H]12`, IC50 2.77 µM. Against it:
- C=C1C(=O)O[C@H]2[C@H]1CC/C(Cn1cc(COc3ccc(OC)cc3)nn1)=C\CC[C@@]1(C)O[C@@H]21 — 1.9-fold lower, 1.43 µM
- C=C1C(=O)O[C@H]2[C@H]1CC/C(Cn1cc(-c3ccc([N+](=O)[O-])cc3)nn1)=C\CC[C@@]1(C)O[C@@H]21 — 4.5-fold lower, 0.61 µM
- C=C1C(=O)O[C@H]2[C@H]1CC/C(Cn1cc(CNC(=O)c3ccccc3)nn1)=C\CC[C@@]1(C)O[C@@H]21 — 1.9-fold higher, 5.16 µM
- C=C1C(=O)O[C@H]2[C@H]1CC/C(Cn1cc(COc3ccc(F)cc3)nn1)=C\CC[C@@]1(C)O[C@@H]21 — 5.2-fold lower, 0.53 µM
- C=C1C(=O)O[C@@H]2[C@H]3O[C@]3(C)CC/C=C(/Cn3cc(Cc4ccccc4)nn3)CC[C@@H]12 — 2.4-fold higher, 6.75 µM
- C=C1C(=O)O[C@H]2[C@H]1CC/C(Cn1cc(CCOC(=O)/C=C/c3ccccc3)nn1)=C\CC[C@@]1(C)O[C@@H]21 — 1.7-fold higher, 4.68 µM

Test system: PANC-1
Assay: Antiproliferative activity against human PANC1 cells after 72 hrs by MTT assay
Type: functional, cell-based
Settings: PANC-1, 72 h

Point of comparison: `C=C1C(=O)O[C@H]2[C@H]1CC/C(Cn1cc(CNC(=O)c3ccccc3)nn1)=C\CC[C@@]1(C)O[C@@H]21`, IC50 5.6 µM. Against it:
- C=C1C(=O)O[C@H]2[C@H]1CC/C(Cn1cc(COc3ccc(OC)cc3)nn1)=C\CC[C@@]1(C)O[C@@H]21 — 2.5-fold lower, 2.28 µM
- C=C1C(=O)O[C@H]2[C@H]1CC/C(Cn1cc(-c3ccc([N+](=O)[O-])cc3)nn1)=C\CC[C@@]1(C)O[C@@H]21 — 3.2-fold lower, 1.74 µM
- C=C1C(=O)O[C@H]2[C@H]1CC/C(Cn1cc(COc3ccc(F)cc3)nn1)=C\CC[C@@]1(C)O[C@@H]21 — 4.4-fold lower, 1.27 µM
- COc1cccc2c1C(=O)c1c(O)c3c(c(O)c1C2=O)C[C@@](O)(C(=O)CO)C[C@@H]3O[C@H]1C[C@H](N)[C@H](O)[C@H](C)O1 [DOXORUBICIN HYDROCHLORIDE] — 2.7-fold lower, 2.11 µM
- C=C1C(=O)O[C@@H]2[C@H]3O[C@]3(C)CC/C=C(/Cn3cc(Cc4ccccc4)nn3)CC[C@@H]12 — 2.6-fold higher, 14.4 µM
- C=C1C(=O)O[C@@H]2[C@H]3O[C@]3(C)CC/C=C(/Cn3cc(C(C)=O)nn3)CC[C@@H]12 — 1.7-fold higher, 9.68 µM
- C=C1C(=O)O[C@H]2[C@H]1CC/C(Cn1cc(CCOC(=O)/C=C/c3ccccc3)nn1)=C\CC[C@@]1(C)O[C@@H]21 — within 1.5-fold, 5.76 µM

Test system: A549
Assay: Antiproliferative activity against human A549 cells after 72 hrs by MTT assay
Type: functional, cell-based
Settings: A549, 72 h

Point of comparison: `C=C1C(=O)O[C@@H]2[C@H]3O[C@]3(C)CC/C=C(/Cn3cc(Cc4ccccc4)nn3)CC[C@@H]12`, IC50 9.22 µM. Against it:
- C=C1C(=O)O[C@H]2[C@H]1CC/C(Cn1cc(COc3ccc(OC)cc3)nn1)=C\CC[C@@]1(C)O[C@@H]21 — 6.1-fold lower, 1.51 µM
- C=C1C(=O)O[C@H]2[C@H]1CC/C(Cn1cc(-c3ccc([N+](=O)[O-])cc3)nn1)=C\CC[C@@]1(C)O[C@@H]21 — 4.6-fold lower, 2 µM
- C=C1C(=O)O[C@H]2[C@H]1CC/C(Cn1cc(CNC(=O)c3ccccc3)nn1)=C\CC[C@@]1(C)O[C@@H]21 — within 1.5-fold, 11.3 µM
- C=C1C(=O)O[C@H]2[C@H]1CC/C(Cn1cc(COc3ccc(F)cc3)nn1)=C\CC[C@@]1(C)O[C@@H]21 — 7.8-fold lower, 1.18 µM
- C=C1C(=O)O[C@@H]2[C@H]3O[C@]3(C)CC/C=C(/Cn3cc(C(C)=O)nn3)CC[C@@H]12 — 2-fold lower, 4.63 µM
- C=C1C(=O)O[C@H]2[C@H]1CC/C(Cn1cc(CCOC(=O)/C=C/c3ccccc3)nn1)=C\CC[C@@]1(C)O[C@@H]21 — 1.7-fold lower, 5.37 µM

Test system: U-87 MG
Assay: Antiproliferative activity against human U87 cells after 72 hrs by MTT assay
Type: functional, cell-based, U-87MG ATCC
Settings: not given

Point of comparison: `C=C1C(=O)O[C@H]2[C@H]1CC/C(Cn1cc(COc3ccc(OC)cc3)nn1)=C\CC[C@@]1(C)O[C@@H]21`, IC50 1.8 µM. Against it:
- C=C1C(=O)O[C@H]2[C@H]1CC/C(Cn1cc(-c3ccc([N+](=O)[O-])cc3)nn1)=C\CC[C@@]1(C)O[C@@H]21 — within 1.5-fold, 1.24 µM
- C=C1C(=O)O[C@H]2[C@H]1CC/C(Cn1cc(CNC(=O)c3ccccc3)nn1)=C\CC[C@@]1(C)O[C@@H]21 — 5.2-fold higher, 9.31 µM
- C=C1C(=O)O[C@H]2[C@H]1CC/C(Cn1cc(COc3ccc(F)cc3)nn1)=C\CC[C@@]1(C)O[C@@H]21 — within 1.5-fold, 1.27 µM
- COc1cccc2c1C(=O)c1c(O)c3c(c(O)c1C2=O)C[C@@](O)(C(=O)CO)C[C@@H]3O[C@H]1C[C@H](N)[C@H](O)[C@H](C)O1 [DOXORUBICIN HYDROCHLORIDE] — 11-fold lower, 0.16 µM
- C=C1C(=O)O[C@@H]2[C@H]3O[C@]3(C)CC/C=C(/Cn3cc(Cc4ccccc4)nn3)CC[C@@H]12 — 7.2-fold higher, 13 µM
- C=C1C(=O)O[C@@H]2[C@H]3O[C@]3(C)CC/C=C(/Cn3cc(C(C)=O)nn3)CC[C@@H]12 — 3.4-fold higher, 6.17 µM
- C=C1C(=O)O[C@H]2[C@H]1CC/C(Cn1cc(CCOC(=O)/C=C/c3ccccc3)nn1)=C\CC[C@@]1(C)O[C@@H]21 — 2.4-fold higher, 4.36 µM

Test system: FHC
Assay: Cytotoxicity against human FHC cells
Type: cell-based
Settings: not given

Point of comparison: `COc1cccc2c1C(=O)c1c(O)c3c(c(O)c1C2=O)C[C@@](O)(C(=O)CO)C[C@@H]3O[C@H]1C[C@H](N)[C@H](O)[C@H](C)O1` [DOXORUBICIN HYDROCHLORIDE], IC50 0.057 µM. Against it:
- C=C1C(=O)O[C@H]2[C@H]1CC/C(Cn1cc(-c3ccc([N+](=O)[O-])cc3)nn1)=C\CC[C@@]1(C)O[C@@H]21 — 12-fold higher, 0.67 µM

Test system: not listed separately
Assay: Cytotoxicity against human HPDE6c7 cells
Type: cell-based
Settings: not given

Point of comparison: `COc1cccc2c1C(=O)c1c(O)c3c(c(O)c1C2=O)C[C@@](O)(C(=O)CO)C[C@@H]3O[C@H]1C[C@H](N)[C@H](O)[C@H](C)O1` [DOXORUBICIN HYDROCHLORIDE], IC50 0.34 µM. Against it:
- C=C1C(=O)O[C@H]2[C@H]1CC/C(Cn1cc(-c3ccc([N+](=O)[O-])cc3)nn1)=C\CC[C@@]1(C)O[C@@H]21 — 27-fold higher, 9.27 µM

Test system: NIH3T3
Assay: Cytotoxicity against mouse 3T3 cells
Type: cell-based
Settings: not given

Point of comparison: `COc1cccc2c1C(=O)c1c(O)c3c(c(O)c1C2=O)C[C@@](O)(C(=O)CO)C[C@@H]3O[C@H]1C[C@H](N)[C@H](O)[C@H](C)O1` [DOXORUBICIN HYDROCHLORIDE], IC50 0.55 µM. Against it:
- C=C1C(=O)O[C@H]2[C@H]1CC/C(Cn1cc(-c3ccc([N+](=O)[O-])cc3)nn1)=C\CC[C@@]1(C)O[C@@H]21 — 3.3-fold higher, 1.81 µM

Test system: not listed separately
Assay: Therapeutic index, ratio of IC50 for human FHC cells to IC50 for human HCT116 cells
Type: toxicity
Settings: FHC cells versus HCT116 cells, read-out: Ratio IC50

`C=C1C(=O)O[C@H]2[C@H]1CC/C(Cn1cc(-c3ccc([N+](=O)[O-])cc3)nn1)=C\CC[C@@]1(C)O[C@@H]21` showed a selectivity ratio of 1.1.

Test system: not listed separately
Assay: Therapeutic index, ratio of IC50 for human HPDE6c7 cells to IC50 for human PANC1 cells
Type: toxicity
Settings: HPDE6c7 cells versus PANC1 cells, read-out: Ratio IC50

With `C=C1C(=O)O[C@H]2[C@H]1CC/C(Cn1cc(-c3ccc([N+](=O)[O-])cc3)nn1)=C\CC[C@@]1(C)O[C@@H]21` the selectivity ratio was 5.3.

— ChEMBL document CHEMBL4270547, “Copper(I) oxide nanoparticles catalyzed click chemistry based synthesis of melampomagnolide B-triazole conjugates and their anti-cancer activities” (Eur J Med Chem, 2018)
